How the values were obtained:
[1] = Cytotoxicity determination in HepG2.2.15 cells (CCK-8); assay type: cell-based; details: human, 6 days treatment, CCK-8, highest concentration 100 uM
Summary of the method: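 HepG2.2.15 cells seeded at 5,000 cells/well in 2% FBS medium and exposed to compounds for 6 days (medium refreshed once), 8 three-fold dilutions from 100 uM. Viability read by CCK-8 after 2.5 h at 37 °C, absorbance 450 nm with 630 nm reference; CC50 calculated.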

HBV = assay: Anti-viral assay in HepG2.2.15 cells: HBV inhibitory activity (HBV DNA in culture medium by q-PCR); assay type: cell-based; details: Hepatitis B virus, HepG2.2.15, 144 h, HepG2.2.15 cells, 6 days treatment, HBV DNA in culture medium by q-PCR, highest concentration 10 uM; read-out: EC50
Summary of the method: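 HepG2.2.15 cells seeded at 40,000/well in 2% FBS medium, dosed next day for 6 days (medium refreshed once midway); 8-point 3-fold dilutions from 10 uM top. HBV DNA in culture medium extracted and quantified by q-PCR; EC50 calculated from dose-response.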

Structure (SMILES): COC(=O)C1=C(C2CCN(c3ncc(C(=O)O)s3)CC2)NC(c2nccs2)=NC1c1ccc(F)cc1Cl (single isomer, unassigned) [II-19-A, 2-(4-(6-(2-Chloro-4-fluorophenyl)-5-(methoxycarbonyl)-2-(thiazol-2-yl)-3,6-dihydropyrimidin-4-yl)piperidin-1-yl)thiazole-5-carboxylic Acid]
- CC50 at 6 days [1]: 19.3 µM
- EC50 (HBV): 0.0064 µM

Structure (SMILES): CCOC(=O)C1=C(C2CCN(c3ncc(C)c(C(=O)O)n3)CC2)NC(c2nccs2)=NC1c1ccc(F)cc1Cl (single isomer, unassigned) [II-20-B, 2-(4-(6-(2-Chloro-4-fluorophenyl)-5-(ethoxycarbonyl)-2-(thiazol-2-yl)-3,6-dihydropyrimidin-4-yl)piperidin-1-yl)-5-methylpyrimidine-4-carboxylic Acid]
- CC50 at 6 days [1]: 16.8 µM
- EC50 (HBV): 0.015 µM

Structure (SMILES): CCOC(=O)C1=C(C2CCN(c3ncc(CC(=O)O)cn3)CC2)NC(c2nccs2)=NC1c1ccc(F)cc1Cl (single isomer, unassigned) [II-21-B, 2-(2-(4-(6-(2-Chloro-4-fluorophenyl)-5-(ethoxycarbonyl)-2-(thiazol-2-yl)-3,6-dihydropyrimidin-4-yl)piperidin-1-yl)pyrimidin-5-yl)acetic Acid]
- CC50 at 6 days [1]: 7.11 µM
- EC50 (HBV): 0.0062 µM

Structure (SMILES): CCOC(=O)C1=C(C2CCN(c3ncc(C)c(C(=O)O)n3)CC2)NC(c2nccs2)=NC1c1cccc(F)c1Cl (single isomer, unassigned) [II-22-B, 2-(4-(6-(2-Chloro-3-fluorophenyl)-5-(ethoxycarbonyl)-2-(thiazol-2-yl)-3,6-dihydropyrimidin-4-yl)piperidin-1-yl)-5-methylpyrimidine-4-carboxylic Acid]
- CC50 at 6 days [1]: 11.2 µM
- EC50 (HBV): 0.015 µM

Structure (SMILES): CCOC(=O)C1=C(C2CCN(c3ncc(CC(=O)O)cn3)CC2)NC(c2nccs2)=NC1c1cccc(F)c1Cl (single isomer, unassigned) [II-23-B, 2-(2-(4-(6-(2-Chloro-3-fluorophenyl)-5-(ethoxycarbonyl)-2-(thiazol-2-yl)-3,6-dihydropyrimidin-4-yl)piperidin-1-yl)pyrimidin-5-yl)acetic Acid]
- CC50 at 6 days [1]: 3.88 µM
- EC50 (HBV): < 0.0046 µM

Structure (SMILES): COC(=O)C1=C(C2CCN(c3ncc([C@]4(O)C[C@@H](C(=O)O)C4)cn3)CC2)NC(c2nccs2)=NC1c1ccc(F)c(F)c1Cl (single isomer, unassigned) [II-24-B, (cis)-3-(2-(4-(6-(2-chloro-3,4-difluorophenyl)-5-(methoxycarbonyl)-2-(thiazol-2-yl)-3,6-dihydropyrimidin-4-yl)piperidin-1-yl)pyrimidin-5-yl)-3-hydroxycyclobutanecarboxylic Acid]
- CC50 at 6 days [1]: 11 µM
- EC50 (HBV): < 0.0046 µM

Structure (SMILES): COC(=O)C1=C(C2CCN(c3ncc(C(=O)O)o3)CC2)NC(c2nccs2)=NC1c1ccc(F)c(F)c1Cl (single isomer, unassigned) [II-25-B, 2-(4-(6-(2-Chloro-3,4-difluorophenyl)-5-(methoxycarbonyl)-2-(thiazol-2-yl)-3,6-dihydropyrimidin-4-yl)piperidin-1-yl)oxazole-5-carboxylic Acid]
- CC50 at 6 days [1]: 18.1 µM
- EC50 (HBV): 0.054 µM

Structure (SMILES): COC(=O)C1=C(C2CCN(c3ncc(Cl)c(C(=O)O)n3)CC2)NC(c2nccs2)=NC1c1ccc(F)c(F)c1Cl (single isomer, unassigned) [II-26-B, 5-Chloro-2-(4-(6-(2-chloro-3,4-difluorophenyl)-5-(methoxycarbonyl)-2-(thiazol-2-yl)-3,6-dihydropyrimidin-4-yl)piperidin-1-yl)pyrimidine-4-carboxylic Acid]
- CC50 at 6 days [1]: 11.1 µM
- EC50 (HBV): 0.045 µM

Structure (SMILES): COC(=O)C1=C(C2CCN(c3ncc(C)c(C(=O)O)n3)CC2)NC(c2nccs2)=NC1c1ccc(F)c(F)c1Cl (single isomer, unassigned) [II-27-B, 2-(4-(6-(2-Chloro-3,4-difluorophenyl)-5-(methoxycarbonyl)-2-(thiazol-2-yl)-3,6-dihydropyrimidin-4-yl)piperidin-1-yl)-5-methylpyrimidine-4-carboxylic Acid]
- CC50 at 6 days [1]: 20.2 µM
- EC50 (HBV): 0.0055 µM

Reference: patent US11053235B2, “Substituted 1,4-dihydropyrimidines for the treatment of HBV infection or HBV-induced diseases” (Janssen Sciences Ireland Unlimited Company, priority 2018, dated 2021)
